This passage reports IC50 results from ChEMBL document CHEMBL1137633, “2,N6-disubstituted adenosine analogs with antitrypanosomal and antimalarial activities” (Antimicrob Agents Chemother, 2007).

Molecules are shown by their SMILES.

In experiment [1] the test system is Trypanosoma brucei rhodesiense. Nature of the experiment: Trypanocidal activity against Trypanosoma brucei rhodesiense STIB 900 […] by reporter dye assay. It counts as functional, organism-based.
The subject of the next experiment is Trypanosoma cruzi. Nature of the experiment: Trypanocidal activity against Trypanosoma cruzi Tulahuen C4 trypomastigotes infected in mouse macrophage by reporter dye assay. It counts as functional, organism-based.
The subject of a further experiment is L6. Nature of the experiment: Cytotoxicity against rat L6 cells. It is filed as cell-based.
A further experiment deals with Leishmania donovani. Kind of experiment: Antileishmanial activity against Leishmania donovani MHOMET-67/L82 amastigotes infected in mouse macrophage by reporter dye assay. It is filed as functional, organism-based.
The test system of the next experiment is Plasmodium falciparum. Kind of experiment: Antiplasmodial activity against chloroquine and pyrimethamine-resistant Plasmodium falciparum K1 […] by reporter dye assay. It is filed as functional, organism-based.

`OC[C@H]1O[C@@H](n2cnc3c(Nc4ccccc4)nc(NCCC4CNc5ccccc54)nc32)[C@H](O)[C@@H]1O` (stereo not given in full): the IC50 (as a rule, the point on the concentration scale where inhibition reaches its midpoint) in experiment [1] is 18.8 µM; with Trypanosoma cruzi, less than 30 µM; in the experiment with L6 it was 13.2 µM; in the experiment on Leishmania donovani, less than 30 µM; in the experiment with Plasmodium falciparum, 5.55 µM.

In the case of `COc1nc(Nc2ccccc2)c2ncn([C@@H]3O[C@H](CO)[C@@H](O)[C@H]3O)c2n1`, the IC50 in experiment [1] was 83.3 µM; with Trypanosoma cruzi it was less than 30 µM; with Leishmania donovani it was less than 30 µM; in the experiment with Plasmodium falciparum it was greater than 10 µM.

For the molecule `OC[C@H]1O[C@@H](n2cnc3c(NC4CCCC4)nc(NCCc4cnc[nH]4)nc32)[C@H](O)[C@@H]1O`, the IC50 in experiment [1] is 37.8 µM; in the experiment with Trypanosoma cruzi, less than 30 µM; in the experiment on Leishmania donovani, less than 30 µM; with Plasmodium falciparum, greater than 10 µM.

As for `OC[C@H]1O[C@@H](n2cnc3c(NC4CCCCC4)nc(NC4CCCCC4)nc32)[C@H](O)[C@@H]1O`, the IC50 in experiment [1] turned out to be 7.26 µM; with Plasmodium falciparum it was 9.62 µM.

In the case of `OC[C@H]1O[C@@H](n2cnc3c(N4CCCCC4)nc(NC4CCCC4)nc32)[C@H](O)[C@@H]1O`, the IC50 in experiment [1] was 11.2 µM; in the experiment on Plasmodium falciparum it was greater than 10 µM.

Turning to `CCN(CC)CCCC(C)Nc1ccnc2cc(Cl)ccc12` (stereo not given) [CHLOROQUINE], the concentration for half-maximal inhibition (IC50) in the experiment on Trypanosoma cruzi and in the experiment with Leishmania donovani was less than 30 µM in each case.

Consider `COc1nc(NCc2cccc(I)c2)c2ncn([C@@H]3O[C@H](CO)[C@@H](O)[C@H]3O)c2n1`, for which the IC50 is 26.7 µM in experiment [1], less than 30 µM in the experiment on Trypanosoma cruzi, less than 30 µM in the experiment on Leishmania donovani and greater than 10 µM in the experiment with Plasmodium falciparum.

In the case of `OC[C@H]1O[C@@H](n2cnc3c(NCc4cccc(I)c4)nc(NCCc4cnc[nH]4)nc32)[C@H](O)[C@@H]1O`, the IC50 in experiment [1] was 42.9 µM; with Trypanosoma cruzi, less than 30 µM; with Leishmania donovani, less than 30 µM; in the experiment on Plasmodium falciparum, greater than 10 µM.

Turning to `OC[C@H]1O[C@@H](n2cnc3c(N4CCCCC4)nc(N4CCCCC4)nc32)[C@H](O)[C@@H]1O`, the concentration for half-maximal inhibition (IC50) in experiment [1] was 87.2 µM; in the experiment on Plasmodium falciparum it was greater than 10 µM.

In the case of `OC(c1cc(C(F)(F)F)nc2c(C(F)(F)F)cccc12)C1CCCCN1` (stereo not given) [MEFLOQUINE], the IC50 is less than 30 µM in the experiment on Trypanosoma cruzi, 4.76 µM in the experiment on L6 and less than 30 µM with Leishmania donovani.

In the case of `OC[C@H]1O[C@@H](n2cnc3c(NCCC(c4ccccc4)c4ccccc4)nc(NC4CCCC4)nc32)[C@H](O)[C@@H]1O`, the IC50 in experiment [1] is 8 µM; in the experiment on Trypanosoma cruzi it was less than 30 µM; in the experiment on Leishmania donovani it was less than 30 µM; in the experiment on Plasmodium falciparum, 3.28 µM.

On to `OC[C@H]1O[C@@H](n2cnc3c(NCc4cccc5ccccc45)nc(NCCC(c4ccccc4)c4ccccc4)nc32)[C@H](O)[C@@H]1O`, for which the IC50 in experiment [1] amounted to 24.1 µM; in the experiment with Plasmodium falciparum it was 1.76 µM.

With `OC[C@H]1O[C@@H](n2cnc3c(Nc4ccccc4)nc(NCCc4cnc[nH]4)nc32)[C@H](O)[C@@H]1O`, the IC50 in experiment [1] was 76.3 µM; in the experiment on Trypanosoma cruzi, less than 30 µM; in the experiment with Leishmania donovani it was less than 30 µM; with Plasmodium falciparum it was greater than 10 µM.

For `OC[C@H]1O[C@@H](n2cnc3c(NCc4cccc(I)c4)nc(NCCC4CNc5ccccc54)nc32)[C@H](O)[C@@H]1O` (stereo not given in full), the IC50 in experiment [1] was 20 µM; in the experiment with Trypanosoma cruzi, less than 30 µM; with Leishmania donovani, less than 30 µM; in the experiment with Plasmodium falciparum it was greater than 10 µM.

With `COc1nc(NCCC(c2ccccc2)c2ccccc2)c2ncn([C@@H]3O[C@H](CO)[C@@H](O)[C@H]3O)c2n1`, the IC50 was 36 µM in experiment [1], less than 30 µM with Trypanosoma cruzi, less than 30 µM with Leishmania donovani and greater than 10 µM with Plasmodium falciparum.

For `OC[C@H]1O[C@@H](n2cnc3c(Nc4ccccc4)nc(NC4CCCC4)nc32)[C@H](O)[C@@H]1O`, the IC50 in experiment [1] was 2.06 µM; in the experiment on Trypanosoma cruzi it was less than 30 µM; with L6, 36.3 µM; with Leishmania donovani, less than 30 µM; in the experiment with Plasmodium falciparum, 6.06 µM.

For `OC[C@H]1O[C@@H](n2cnc3c(NC4CCCCCC4)nc(NC4CCCCCC4)nc32)[C@H](O)[C@@H]1O`, the 50% inhibitory concentration (IC50) in experiment [1] turned out to be 29.8 µM; in the experiment with Plasmodium falciparum, 4.91 µM.

In the case of `OC[C@H]1O[C@@H](n2cnc3c(NCCC(c4ccccc4)c4ccccc4)nc(NCCc4cnc[nH]4)nc32)[C@H](O)[C@@H]1O`, the IC50 was 71.5 µM in experiment [1], less than 30 µM in the experiment with Trypanosoma cruzi, less than 30 µM with Leishmania donovani and 8.17 µM in the experiment on Plasmodium falciparum.

With `OC[C@H]1O[C@@H](n2cnc3c(Nc4ccccc4)nc(NCCOCc4ccccc4)nc32)[C@H](O)[C@@H]1O`, the IC50 in experiment [1] was 8.43 µM; in the experiment with Trypanosoma cruzi it was less than 30 µM; with L6, 53.8 µM; in the experiment on Leishmania donovani it was less than 30 µM; in the experiment with Plasmodium falciparum it was 7.38 µM.

For `COc1nc(NC2CCCC2)c2ncn([C@@H]3O[C@H](CO)[C@@H](O)[C@H]3O)c2n1`, the half-inhibitory concentration (IC50) in experiment [1] is 32.9 µM; in the experiment on Trypanosoma cruzi it was less than 30 µM; in the experiment with L6 it was 51.6 µM; with Leishmania donovani it was less than 30 µM; in the experiment with Plasmodium falciparum, greater than 10 µM.

`CCCNc1nc(NCCc2ccccc2)c2ncn([C@@H]3O[C@H](CO)[C@@H](O)[C@H]3O)c2n1`: the IC50 in experiment [1] is 14.2 µM; in the experiment on Trypanosoma cruzi it was less than 30 µM; in the experiment with L6 it was greater than 200 µM; in the experiment with Leishmania donovani, less than 30 µM; in the experiment with Plasmodium falciparum it was greater than 10 µM.

For `OC[C@H]1O[C@@H](n2cnc3c(NCCC(c4ccccc4)c4ccccc4)nc(NCCC4CNc5ccccc54)nc32)[C@H](O)[C@@H]1O` (stereo not given in full), the IC50 in experiment [1] is 25.1 µM; with Trypanosoma cruzi, less than 30 µM; in the experiment on Leishmania donovani it was less than 30 µM; in the experiment on Plasmodium falciparum, 1.83 µM.

As to `OC[C@H]1O[C@@H](n2cnc3c(NCc4cccc(I)c4)nc(NC4CCCC4)nc32)[C@H](O)[C@@H]1O`, the concentration for half-maximal inhibition (IC50) is 5.44 µM in experiment [1]; less than 30 µM in the experiment on Trypanosoma cruzi; 51.7 µM with L6; less than 30 µM in the experiment on Leishmania donovani; greater than 10 µM in the experiment with Plasmodium falciparum.

Consider `OC[C@H]1O[C@@H](n2cnc3c(NCCC(c4ccccc4)c4ccccc4)nc(NCc4cccc5ccccc45)nc32)[C@H](O)[C@@H]1O`, for which the IC50 amounted to 17.3 µM in experiment [1] and 1.56 µM with Plasmodium falciparum.

Turning to `OC[C@H]1O[C@@H](n2cnc3c(NC45CC6CC(CC(C6)C4)C5)nc(N4CCCC4)nc32)[C@H](O)[C@@H]1O`, the IC50 in experiment [1] came out at 34.1 µM; with Plasmodium falciparum it was 6.2 µM.

As for `OC[C@H]1O[C@@H](n2cnc3c(NCCC4CNc5ccccc54)nc(NCCC4CNc5ccccc54)nc32)[C@H](O)[C@@H]1O` (stereo not given in full), the half-maximal inhibitory concentration (IC50) in experiment [1] came out at 26.5 µM; with Plasmodium falciparum it was 2.46 µM.

For the molecule `OC[C@H]1O[C@@H](n2cnc3c(NCCC(c4ccccc4)c4ccccc4)nc(NCCOCc4ccccc4)nc32)[C@H](O)[C@@H]1O`, the IC50 in experiment [1] is 27.7 µM; in the experiment with Trypanosoma cruzi it was less than 30 µM; in the experiment on Leishmania donovani, less than 30 µM; in the experiment on Plasmodium falciparum it was 3.06 µM.

Molecule `C[C@@H]1CC[C@H]2[C@@H](C)C(=O)O[C@@H]3O[C@@]4(C)CC[C@@H]1[C@]32OO4` [ARTEMISININ] returned an IC50 in the experiment with Plasmodium falciparum of 0.2 µM.

For `Nc1nc(N)nc(Nc2ccc([As]3SCC(CO)S3)cc2)n1` (stereo not given) [MELARSOPROL], the 50% inhibitory concentration (IC50) is 0.0056 µM in experiment [1], less than 30 µM in the experiment with Trypanosoma cruzi and less than 30 µM in the experiment on Leishmania donovani.

Regarding `OC[C@H]1O[C@@H](n2cnc3c(NC4CC4)nc(NC4CC4)nc32)[C@H](O)[C@@H]1O`, the 50% inhibitory concentration (IC50) was 172 µM in experiment [1] and greater than 10 µM with Plasmodium falciparum.

For `OC[C@H]1O[C@@H](n2cnc3c(NCc4cccc(I)c4)nc(NCCOCc4ccccc4)nc32)[C@H](O)[C@@H]1O`, the IC50 in experiment [1] was 27 µM; with Trypanosoma cruzi, less than 30 µM; in the experiment on Leishmania donovani, less than 30 µM; with Plasmodium falciparum, greater than 10 µM.
